Target: ATP-dependent translocase ABCB1 (Mus musculus, UniProt P21447)
Assay: TP_TRANSPORTER: transepithelial transport (apical to basal) in Mdr1a-expressing LLC-PK1 cells
Type: functional, cell-based
Details: pig

ATP-dependent translocase ABCB1, sequence (P21447 whole entry): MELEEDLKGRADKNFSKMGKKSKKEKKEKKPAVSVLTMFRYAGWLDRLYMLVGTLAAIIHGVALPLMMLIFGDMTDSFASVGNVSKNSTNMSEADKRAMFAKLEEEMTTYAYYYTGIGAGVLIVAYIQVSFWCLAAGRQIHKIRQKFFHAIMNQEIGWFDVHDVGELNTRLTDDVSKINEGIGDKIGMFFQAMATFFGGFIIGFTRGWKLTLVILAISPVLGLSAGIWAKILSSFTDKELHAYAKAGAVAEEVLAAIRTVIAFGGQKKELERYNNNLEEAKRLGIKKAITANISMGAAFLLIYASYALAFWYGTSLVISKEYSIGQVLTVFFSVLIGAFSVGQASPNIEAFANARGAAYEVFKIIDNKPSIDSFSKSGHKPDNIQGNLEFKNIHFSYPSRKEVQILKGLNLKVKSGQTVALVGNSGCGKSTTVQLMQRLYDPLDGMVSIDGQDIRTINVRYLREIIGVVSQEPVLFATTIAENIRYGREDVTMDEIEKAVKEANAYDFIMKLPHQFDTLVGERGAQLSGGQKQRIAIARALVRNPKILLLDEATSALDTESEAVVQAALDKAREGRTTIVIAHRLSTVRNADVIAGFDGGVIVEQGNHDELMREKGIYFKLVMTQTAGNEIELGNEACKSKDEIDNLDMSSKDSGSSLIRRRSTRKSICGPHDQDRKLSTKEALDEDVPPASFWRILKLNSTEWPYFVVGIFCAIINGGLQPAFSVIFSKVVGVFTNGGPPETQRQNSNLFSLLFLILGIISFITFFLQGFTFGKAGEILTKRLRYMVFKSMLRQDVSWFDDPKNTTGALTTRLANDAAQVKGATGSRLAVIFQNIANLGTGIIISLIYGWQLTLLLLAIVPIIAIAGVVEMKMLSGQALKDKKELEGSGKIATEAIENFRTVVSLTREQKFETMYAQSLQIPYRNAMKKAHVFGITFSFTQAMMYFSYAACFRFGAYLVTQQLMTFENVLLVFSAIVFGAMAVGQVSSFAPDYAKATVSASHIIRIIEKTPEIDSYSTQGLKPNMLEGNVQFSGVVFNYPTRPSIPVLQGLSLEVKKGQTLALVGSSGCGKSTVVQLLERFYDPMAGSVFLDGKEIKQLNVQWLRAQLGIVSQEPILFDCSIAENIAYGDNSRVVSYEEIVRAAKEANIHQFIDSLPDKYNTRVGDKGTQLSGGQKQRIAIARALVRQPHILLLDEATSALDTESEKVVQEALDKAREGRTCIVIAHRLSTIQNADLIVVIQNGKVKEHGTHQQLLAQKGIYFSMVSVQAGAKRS

Activity	SMILES
is not a substrate [-]	O=C(O)c1[nH]c2cc(Cl)cc(Cl)c2c1/C=C1\CCN(c2ccccc2)C1=O
substrate [+]	CC(C)CN(C[C@@H](O)[C@H](Cc1ccccc1)NC(=O)O[C@H]1CCOC1)S(=O)(=O)c1ccc(N)cc1 [AMPRENAVIR]

Source: ChEMBL document CHEMBL2074030, “The systemic exposure of an N-methyl-D-aspartate receptor antagonist is limited in mice by the P-glycoprotein and breast cancer resistance protein efflux transporters” (Drug Metab Dispos, 2004)
